Assay results published in patent US20220213061A9, “HETEROCYCLIC COMPOUNDS FOR MODULATING NR2F6” (TES Pharma S.r.l., priority 2020, published 2022).
Where a name gives a salt, the structure may show the parent alone.

Target: T1, recombinant human NR2F6 protein (Homo sapiens, UniProt P10588)
T1 sequence (P10588 1-404): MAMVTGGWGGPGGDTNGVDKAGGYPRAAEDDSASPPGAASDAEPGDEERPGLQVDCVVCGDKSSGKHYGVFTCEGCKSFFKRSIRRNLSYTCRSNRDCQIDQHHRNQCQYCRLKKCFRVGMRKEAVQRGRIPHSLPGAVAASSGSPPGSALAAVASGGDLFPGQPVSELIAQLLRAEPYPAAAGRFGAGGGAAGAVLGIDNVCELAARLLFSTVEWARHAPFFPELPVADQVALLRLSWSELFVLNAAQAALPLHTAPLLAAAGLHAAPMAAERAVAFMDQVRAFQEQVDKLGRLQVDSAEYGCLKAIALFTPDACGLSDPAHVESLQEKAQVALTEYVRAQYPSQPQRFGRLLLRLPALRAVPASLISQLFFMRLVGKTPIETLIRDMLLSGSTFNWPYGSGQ
Assay: Biochemical NR2F6 binding assay (EnSpire label-free)
Settings: label-free binding to immobilized purified recombinant human NR2F6; ligands 1 nM to 100 uM, 1% DMSO
Outline: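 Recombinant human NR2F6 was immobilized at pH 4.5 (50 μg/well, 16 h, 4° C) on label-free biosensor plates. Ligands were tested from 1 nM to 100 uM in 1% DMSO, with readings over 30 minutes. Binding was measured as reflected-wavelength shift (pm), and EC50 was derived from concentration-response curves.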

With `O=C(Nc1cccc2ccccc12)[C@@H]1CNC[C@H]1c1ccc(C(F)(F)F)cc1` [Compound I-110, (3S,4R)—N-(Naphthalen-1-yl)-4-[4-(trifluoromethyl)phenyl]pyrrolidine-3-carboxamide hydrochloride] the EC50 was 1000 to 10000 nM.
In the case of `N#Cc1ccc(Oc2cccc(NC(=O)[C@H]3CNC[C@@H]3c3ccccc3)c2)cc1` [Compound I-111, (3R,4S)—N-[3-(4-Cyanophenoxy)phenyl]-4-phenylpyrrolidine-3-carboxamide hydrochloride], the EC50 is reported as < 1000 nM.
With `N#Cc1ccc(Oc2cccc(NC(=O)[C@@H]3CNC[C@H]3c3ccccc3)c2)cc1` [Compound I-112, (3S,4R)—N-[3-(4-Cyanophenoxy)phenyl]-4-phenylpyrrolidine-3-carboxamide hydrochloride] the EC50 was < 1000 nM.
`O=C(Nc1cccc(Nc2ccccc2)c1)[C@H]1CNC[C@@H]1c1ccccc1` [Compound I-113, (3R,4S)-4-Phenyl-N-[3-(phenylamino)phenyl]pyrrolidine-3-carboxamide hydrochloride] was tested, and the EC50 was 1000 to 10000 nM.
Work on `O=C(Nc1cccc(Nc2ccccc2)c1)[C@@H]1CNC[C@H]1c1ccccc1` [Compound I-114, (3S,4R)-4-Phenyl-N-[3-(phenylamino)phenyl]pyrrolidine-3-carboxamide hydrochloride] yielded an EC50 of 1000 to 10000 nM.
`O=C(N[C@H]1C[C@H](c2ccccc2)C1)[C@@H]1CNC[C@H]1c1ccccc1` [Compound I-117, (3S,4R)-4-Phenyl-N-(trans-3-phenylcyclobutyl)pyrrolidine-3-carboxamide hydrochloride] showed an EC50 of 1000 to 10000 nM.
For `O=C(NC1CN(c2ccc(F)cc2)C1)[C@@H]1CNC[C@H]1c1ccccc1` [Compound I-118, (3S,4R)-4-Phenyl-N-(1-4-fluorophenylazetidin-3-yl)pyrrolidine-3-carboxamide hydrochloride], the EC50 was < 1000 nM.
In the case of `O=C(Nc1cccc(Oc2ccc(C(F)(F)F)nc2)c1)[C@H]1CNC[C@@H]1c1ccccc1` [Compound I-119, 3R,4S)-4-Phenyl-N-(3-{[6-(trifluoromethyl)pyridin-3-yl]oxy}phenyl) pyrrolidine-3-carboxamide dihydrochloride], the EC50 is reported as 1000 to 10000 nM.
`O=C(Nc1cccc(Oc2ccc(C(F)(F)F)nc2)c1)[C@@H]1CNC[C@H]1c1ccccc1` [Compound I-120, (3S,4R)-4-Phenyl-N-(3-{[6-(trifluoromethyl)pyridin-3-yl]oxy}phenyl) pyrrolidine-3-carboxamide dihydrochloride] showed an EC50 of 1000 to 10000 nM.
`O=C(NC1CCN(c2ccc(F)cc2)CC1)[C@@H]1CNC[C@H]1c1ccccc1` [Compound I-121, (3S,4R)-3-{[1-(4-Fluorophenyl)Ipiperidin-4-yl]carbamoyl]}-4-phenylpyrrolidine dihydrochloride] was tested, and the EC50 was 1000 to 10000 nM.
With `N#Cc1ccc(N2CCC(NC(=O)[C@@H]3CNC[C@H]3c3ccccc3)CC2)cc1` [Compound I-122, (3S,4R)-3-{[1-(4-Cyanophenyl)lpiperidin-4-yl]carbamoyl]}-4-phenylpyrrolidine dihydrochloride] the EC50 was < 1000 nM.
`O=C(NC1CCN(c2ccccc2)CC1)[C@@H]1CNC[C@H]1c1ccccc1` [Compound I-123, (3S,4R)-3-[(l-Phenylpiperidin-4-yl)carbamoyl]-4-phenylpyrrolidine dihydrochloride] showed an EC50 of 1000 to 10000 nM.
